Measured values as given in patent US9765035B2 (priority 2013, dated 2017).
Like-named read-outs stand apart in the source and are kept apart here.

Target: human PRMT8 (Homo sapiens, UniProt Q9NR22)
Experiment: biochemical
From the text: General Materials. S-adenosylmethionine (SAM), S-adenosylhomocysteine (SAH), bicine, Tween20, dimethylsulfoxide (DMSO), bovine skin gelatin (BSG), isopropyl-β-D-thiogalactopyranoside (IPTG), and Tris(2-carboxyethyl)phosphine hydrochloride solution (TCEP) were purchased from Sigma-Aldrich at the highest level of purity possible. ^3H-SAM was purchase from American Radiolabeled Chemicals with a specific activity of 80 Ci/mmol. 384-well streptavidin Flashplates were purchased from PerkinElmer.
Substrates. Peptide representative of human histone H4 residues 31-45 was synthesized with an N-terminal linker-affinity tag motif and a C-terminal amide cap by 21st Century Biochemicals. The peptide was purified by high-performance liquid chromatography (HPLC) to greater than 95% purity and confirmed by liquid chromatography mass spectrometry (LC-MS). The sequence was Biot-Ahx-[…]-amide (SEQ ID NO.:8).
The resulting construct encodes an N-terminal GST tag and a thrombin cleavage sequence
Protein Expression. E. coli (BL21(DE3) Gold, Stratagene) made competent by the CaCl2 method were transformed with the PRMT8 construct and ampicillin selection. Protein over-expression was accomplished by growing the PRMT8 expressing E. coli clone and inducing expression with 0.3 mM IPTG at 16° C. The culture was grown for 12 hours, harvested by centrifugation, and stored at −80° C. for purification.
Protein Purification. […] GST-tagged PRMT8 was eluted with 50 mM Tris, 2 mM glutathione, pH 7.8. Pooled fractions were cleaved by thrombin (10 U) and dialysed in buffer A. GST was removed by reloading the cleaved protein sample onto glutathione sepharose column and PRMT8 was collected in the flow-through fractions. PRMT8 was purified further by ceramic hydroxyapatite chromatography. The column was washed with 50 mM phosphate buffer, 100 mM NaCl, 5% glycerol, 5 mM β-mercaptoethanol, pH 7.8 and PRMT8 was eluted by 100 mM phosphate in the same buffer. Protein was concentrated and buffer was exchanged to 50 mM Tris, 300 mM NaCl, 10% glycerol, 5 mM β-mercaptoethanol, pH 7.8 by ultrafiltration. The purity of recovered protein was 89%.
General Procedure for PRMT8 Enzyme Assays on Peptide Substrates. The assays were all performed in a buffer consisting of 20 mM Bicine (pH=7.6), 1 mM TCEP, 0.005% BSG, and 0.002% Tween 20, prepared on the day of use. Compounds in 100% DMSO (1 ul) were spotted into a polypropylene 384-well V-bottom plates (Greiner) using a Platemate Plus outfitted with a 384-channel head (Thermo Scientific). DMSO (1 ul) was added to Columns 11, 12, 23, 24, rows A-H for the maximum signal control and 1 ul of SAH, a known product and inhibitor of PRMT8, was added to columns 11, 12, 23, 24, rows I-P for the minimum signal control. A cocktail (40 ul) containing the PRMT8 enzyme was added by Multidrop Combi (Thermo-Fisher). The compounds were allowed to incubate with PRMT8 for 30 min at room temperature, then a cocktail (10 ul) containing ^3H-SAM and peptide was added to initiate the reaction (final volume=51 ul). The final concentrations of the components were as follows: PRMT8 was 1.5 nM, ^3H-SAM was 50 nM, non-radiolabeled SAM was 550 nM, peptide was 150 nM, SAH in the minimum signal control wells was 1 mM, and the DMSO concentration was 2%. The assays were stopped by the addition of non-radiolabeled SAM (10 ul) to a final concentration of 400 uM, which dilutes the ^3H-SAM to a level where its incorporation into the peptide substrate is no longer detectable. 50 ul of the reaction in the 384-well polypropylene plate was then transferred to a 384-well Flashplate and the biotinylated peptides were allowed to bind to the streptavidin surface for at least 1 hour before being washed once with 0.1% Tween20 in a Biotek EL×405 plate washer. […]

[1] = biochemical evaluation, peptide substrate, read-out: PRMT8 IC50
[2] = single experiment or average of multiple experiments, read-out: PRMT8 biochemical evaluation (numerical)

human PRMT8, sequence (Q9NR22 whole entry): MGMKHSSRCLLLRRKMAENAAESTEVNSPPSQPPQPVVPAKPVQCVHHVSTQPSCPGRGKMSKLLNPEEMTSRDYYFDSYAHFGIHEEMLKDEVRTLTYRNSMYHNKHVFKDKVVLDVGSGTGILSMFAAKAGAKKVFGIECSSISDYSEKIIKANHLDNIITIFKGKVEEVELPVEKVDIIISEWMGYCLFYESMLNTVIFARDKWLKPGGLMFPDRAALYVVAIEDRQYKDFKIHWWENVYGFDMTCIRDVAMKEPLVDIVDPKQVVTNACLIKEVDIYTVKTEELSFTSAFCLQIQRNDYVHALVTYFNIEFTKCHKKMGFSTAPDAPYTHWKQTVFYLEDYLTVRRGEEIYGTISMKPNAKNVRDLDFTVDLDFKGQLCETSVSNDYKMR

Row | SMILES | IC50 [1] [nM] | IC50 [2] [nM]
1 | CN(CCN)Cc1n[nH]c2ccc(OCc3ccccc3)cc12 [Compound 1B] | 101 to 1000 | 267
2 | CC(C)COc1ccc2[nH]nc(CN(C)CCN)c2c1 [Compound 2, N1-((5-iso-butoxy-1H-indazol-3-yl)methyl)-N1-methylethane-1,2-diamine] | 101 to 1000 | 458
3 | CNCCN(C)Cc1n[nH]c2ccc(OCC(C)c3ccccc3)cc12 (centres unmarked) [Compound 19] | < 100 | 
4 | CNCCN(C)Cc1n[nH]c2ccc(OCc3ccn(C)n3)cc12 [Compound 20] | < 100 | 
5 | CNCCN(C)Cc1n[nH]c2cccc(OCc3ccccc3)c12 [Compound 21] | < 100 | 67.5
6 | CNCCN(C)Cc1n[nH]c2ccc(Oc3cccc(OC)c3)cc12 [Compound 22] |  | 80.2
7 | CNCCN(C)Cc1n[nH]c2ccc(OCc3ccc(C(C)=O)cc3)cc12 [Compound 23] |  | 42.8
8 | CNCCN(C)Cc1n[nH]c2cccc(OCCC(C)C)c12 [Compound 31] | 101 to 1000 | 
9 | CNCCN(C)Cc1n[nH]c2ccc(OCc3ccn(CC(C)C)n3)cc12 [Compound 33] | 1010 to 3000 | 273
10 | CNCCN(C)Cc1n[nH]c2ccc(OC)cc12 [Compound 35] |  | 1860
11 | CNCCN(C)Cc1n[nH]c2cccc(OCCC(O)CO)c12 (centres unmarked) [Compound 40] | 1010 to 3000 | 
12 | CNCCN(C)Cc1n[nH]c2cccc(OCCCC(O)CO)c12 (centres unmarked) [Compound 41, 5-((3-((methyl(2-(methylamino)ethyl)amino)methyl)-1H-indazol-4-yl)oxy)pentane-1,2-diol] | 1010 to 3000 | 
13 | CNCCN(C)Cc1n[nH]c2ccc(C(C)C)cc12 [Compound 42, N^1-((5-isopropyl-1H-indazol-3-yl)methyl)-N^1,N^2-dimethylethane-1,2-diamine] | 101 to 1000 | 2850
14 | CNCCN(C)Cc1n[nH]c2ccc(N3CCC4(CCCCC4)CC3)cc12 [Compound 43, N^1-((5-(3-azaspiro[5.5]undecan-3-yl)-1H-indazol-3-yl)methyl)-N^1,N^2-dimethylethane-1,2-diamine] | 101 to 1000 | 2000
15 | CNCCN(C)Cc1n[nH]c2ccc(C3CCOCC3)cc12 [Compound 44, N^1,N^2-dimethyl-N^1-((5-(tetrahydro-2H-pyran-4-yl)-1H-indazol-3-yl)methyl)ethane-1,2-diamine] | < 100 | 236
16 | CNCCN(C)Cc1n[nH]c2ccc(C3=CCOCC3)cc12 [Compound 45] | < 100 | 133
17 | CNCCN(C)Cc1n[nH]c2ccc(N3CCCCC3)cc12 [Compound 46, N^1,N^2-dimethyl-N^1-((5-(piperidin-1-yl)-1H-indazol-3-yl)methyl)ethane-1,2-diamine] | < 100 | 98.8
18 | CNCCN(C)Cc1n[nH]c2ccc(C3CCCCC3)cc12 [Compound 47, N^1-((5-cyclohexyl-1H-indazol-3-yl)methyl)-N^1,N^2-dimethylethane-1,2-diamine] | ≤ 100 | 91.8
19 | CNCCN(C)Cc1n[nH]c2ccc(C3=CCCCC3)cc12 [Compound 48] | ≤ 100 | 83.4
20 | CNCCN(C)Cc1n[nH]c2ccc(Oc3ccccc3C(F)(F)F)cc12 [Compound 49] |  | 45.4
21 | CNCCN(C)Cc1n[nH]c2ccc(OCC3CCOCC3)cc12 [Compound 50] |  | 38.7
